This is an account of results in US10918655B2, “Stimulating platelet generation by activating mitochondrial biogenesis” (THE GENERAL HOSPITAL CORPORATION, priority 2016, dated 2021).

In data set [1] the test system is circulating platelet counts. The data set is described as follows: circulating platelet counts in mice receiving 5-FU. It counts as in vivo. The note with it: on day 4; dose of 150 mg/kg body weight. How it is done: FIGS. 6A-6D provide graphs showing that LLL alleviates thrombocytopenia induced by anti-CD41 antibody or 5-FU in mice. (A and B) Mice were administered daily with 0.1 mg/kg anti-CD41 antibody over 7 days. LLL was given daily from day 3 to day 7. […] LLL was given daily for 3 consecutive days starting at 4 hr after 5-FU injection. Platelet counts (A and C) were measured daily at 6 hr post-LLL and a tail bleeding time (B and D) was examined on day 5 (B) or day 4 (D). n=6; ns, no significance; and *P<0.05, **P<0.01, ***P<0.001 compared between indicated groups.
We further extended our investigation to ITP precluding that LLL-mediated thrombopoiesis was specific for thrombocytopenia induced by γ-irradiation. We depleted platelets by administering anti-CD41 antibody daily at 0.1 mg/kg body weight from day 0 to day 7 to create a commonly used animal model of ITP. Katsman et al., Transfusion 50, 1285-1294 (2010). […] LLL lifted the nadir effectively after only two treatments (day 4) and greatly accelerated a recovery of platelet counts in the presence of anti-CD41 antibody, although platelet counts were rebound in all the mice eventually owing to compensatory thrombopoiesis (FIG. 6A). Bleeding time was also normalized on day 5 in LLL-treated animals (FIG. 6B). […]

The test system of the next data set is PPF-MKs. Particulars: Richardson et al., Blood 2005; cited from earlier work.
A further data set deals with 5-FU-treated mice. Kind of data set: platelet production in vivo in 5-FU-induced thrombocytopenia with mito-drugs. Set-up: species or system B6 mice. Particulars: 100 mg/kg gavage twice a day for 4 days. How it is done:
FIG. 10 provides a graph showing the enhancement of plt production by mito-drugs in vivo. All mice were treated with two doses of 5-FU (FU), along with an indicated mito-drug or LLLT for 4 consecutive days (red arrow). *, p<0.05, **, p<0.01 and ***, p<0.001 in the presence or absence of indicated drugs or LLLT. n=10 in each group.
The 5-FU-treated mice were gavaged with BEZ or Res at 100 mg/kg body weight or vehicle control twice a day for 4 consecutive days starting at 6 hr after the first 5-FU injection. For comparison, 5-FU-treated mice were also administered LLL daily for 4 consecutive days in parallel. […] Whether or not a higher dose or dosage of BEZ can further increase the efficacy remains to be investigated.

Data set [2] has as its system MKs. The data set is described as follows: platelet production from LLL-treated MKs with Oligomycin A in MK medium. In kind it is cell-based, mouse. Particulars: 5 μg/ml in MK medium. How it is done:
(§1) FIGS. 1A-1H provide graphs and images showing LLL promotes MK maturation and platelet production. (A) Illustration of time lines of ex vivo platelet differentiation from MKs. CD41+ FSC^high MKs were sorted from BM cells, treated with or without LLL, and cultured in MK medium. MKs were collected 1 hr later for cellular ATP measurement (B), 1 day for studying proplatelet formation (C-F) or 3 days for counting platelets (G). (B) ATP was measured in 5×10^4 MKs treated with LLL at various energy densities. (C) Sizes of CD41+ MKs were analyzed by flow cytometric analysis of forward/side scatter (FSC) before and after 24 hr differentiation. (D) Representative transmission electron micrographs of MKs from at least 6 samples per group with 30 cells in each group. N, nuclear; IMS, invaginated membrane system. […] (F) The numbers indicated percentages of small or large PPF-MKs of at least 500 MKs analyzed per sample and 6 samples per group. ###P<0.001, large PPF-MKs and **P<0.01, total PPF-MKs compared between the two groups. […]
(§2) FIGS. 2A-2H provide graphs and images showing the thrombopoietic effect of LLL is ATP-dependent. (A) Correlations between MK ATP levels at 1 hr post-LLL and platelets measured in 3 days later are analyzed by coefficient of determination. […] Mitochondrial membrane potential of CD41+ FSC^high MKs was determined by flow cytometric analysis of red J-aggregate fluorescence at 590 nm. […]

Data set [3] deals with MKs. The data set is described as follows: ATP measurement in MKs with Oligomycin A. It counts as cell-based, mouse. The note with it: 5 μg/ml. How it is done:
as §1, §2

For a further data set, the system named is Mouse MKs. Kind of data set: platelet production ex vivo from MKs in the presence of mito-drugs. It counts as cell-based. Particulars: for platelet generation from MKs ex vivo: Bezafibrate 400 μM, Resveratrol 50 μM, SRT1720 0.1 μM, AICAR 500 μM, MK medium for 3 days, compared to controls. How it is done:
FIG. 9 provides a graph showing enhancement of platelet production ex vivo by mito-drugs. C. control; Bez, Bezafibrate (400 μM); Res, Resveratrol (50 μM); SRT1720, 0.1 μM; Aicar, AICAR (500 μM); LLL, 810 nm 3 J/cm^2. Mouse MKs were differentiated in MK medium for 3 days in the presence of an indicated drug or after LLLT. **, p<0.01 and ***, p<0.001 compared to controls. n=6.
Some mito-drugs tested enhance platelet production from MKs ex vivo. […] The concentration used for individual drugs is the one commonly used for inducing PGC-1α expression in other cell cultures except for SRT1720 that was used at a 100× lower concentration. […] Perhaps, the concentration of each drug can be further optimized for enhancing platelet production.

In the next data set the test system is IEX-1-deficient mice. The note with it: Ramsey et al., Platelets 2015; cited from earlier work.

On to `O=c1[nH]cc(F)c(=O)[nH]1` [5-FU, 5-fluorouracil], for which the “diminished circulating platelet counts” value in data set [1] came to 43%. For `Nc1ncnc2c1ncn2[C@@H]1O[C@H](COP(=O)(O)OP(=O)(O)OP(=O)(O)O)[C@@H](O)[C@H]1O` [ATP], in the data set with PPF-MKs, the proplatelet elongation entry is “activated proplatelet elongation” and the proplatelet growth result is “significantly enhanced proplatelet growth”. Consider `CC(C)(Oc1ccc(CCNC(=O)c2ccc(Cl)cc2)cc1)C(=O)O` [BEZ, bezafibrate], for which the platelet counts sustained with 5-FU-treated mice (5-FU 120 and 90 mg/kg on days 1 and 4) is at least 70 % the normal value.

Turning to `CC[C@@H]1/C=C/C=C/C[C@H](C)[C@H](O)[C@](C)(O)C(=O)[C@H](C)[C@@H](O)[C@H](C)C(=O)[C@H](C)[C@@H](O)[C@H](C)/C=C/C(=O)O[C@H]2[C@@H](C)[C@@H](CC1)O[C@@]1(CC[C@@H](C)[C@@H](C[C@H](C)O)O1)[C@@H]2C` [Oligomycin A], the “LLL-mediated enhancement of platelet generation” value in the data set with MKs [2] was “severely blunted”. Also, the “ATP synthesis in the cells” value in the data set on MKs [3] is on record as “reduces ATP synthesis”. Consider `O=C(Nc1ccccc1-c1cn2c(CN3CCNCC3)csc2n1)c1cnc2ccccc2n1` [SRT1720], for which, in the data set with Mouse MKs, the “platelet generation from MKs ex vivo” value is “enhance platelet generation from MKs ex vivo significantly”. Moreover, the platelet production entry in the data set on Mouse MKs (higher concentration of SRT1720 (than 0.1 μM)) is “did not increase platelet production significantly”. For the compound `COC1=C(OC)C(=O)C(CCCCCCCCCC[P+](c2ccccc2)(c2ccccc2)c2ccccc2)=C(C)C1=O` [mitoquinone], the “thrombocytopenia in IEX-1-deficient mice” value in the data set on IEX-1-deficient mice is listed as “completely reverse thrombocytopenia”. In the case of `Oc1ccc(C=Cc2cc(O)cc(O)c2)cc1` [resveratrol], the “platelet generation from MKs ex vivo” value in the data set on Mouse MKs was “enhance platelet generation from MKs ex vivo significantly”. Moreover, in the data set with 5-FU-treated mice (5-FU-treated mice), the “efficacy compared to BEZ or LLLT” value is given as “relatively weak”, the “nadir of platelet counts” value was “lifted the nadir significantly” and the platelet biogenesis result is “augmented platelet biogenesis”.
